Source: US10597380B2, “Pyridazinone-based broad spectrum anti-influenza inhibitors” (Hoffmann-La Roche Inc., priority 2017, dated 2020)

Test system: Influenza A/WSN/33-Luciferase virus
Assay: microbe, parasite or virus in culture
Format: cell-based
Settings: A549, 72 h, luciferase signal three days later, read-out: IC50 antiviral activity (Luciferase reporter assay)

Compound	IC50 [nM]
COC1CCN(CCn2cccc(Nc3nn(-c4ccc(OC(F)(F)F)cc4)c(=O)c4c3CCC4)c2=O)C1 (stereo not drawn) [Example 42, 1-[[1-[2-(3-methoxypyrrolidin-1-yl)ethyl]-2-oxo-3-pyridyl]amino]-3-[4-(trifluoromethoxy)phenyl]-6,7-dihydro-5H-cyclopenta[d]pyridazin-4-one]	40
CCOC(=O)C1CN(CCn2cccc(Nc3nn(-c4ccc(OC(F)(F)F)cc4)c(=O)c4c3CCC4)c2=O)CCO1 (stereo not drawn) [Example 41, ethyl 4-[2-[2-oxo-3-[[4-oxo-3-[4-(trifluoromethoxy)phenyl]-6,7-dihydro-5H-cyclopenta[d]pyridazin-1-yl]amino]-1-pyridyl]ethyl]morpholine-2-carboxylate]	60
CNC(=O)CCCn1cccc(Nc2nn(-c3ccc(OC(F)(F)F)cc3)c(=O)c3ccccc23)c1=O [Example 97, N-methyl-4-[2-oxo-3-[[4-oxo-3-[4-(trifluoromethoxy)phenyl]phthalazin-1-yl]amino]-1-pyridyl]butanamide]	9
Cn1cccc(Nc2nn(-c3ccc(C(C)(C)C)cc3)c(=O)c3ccccc23)c1=O [Example 14, 2-(4-tert-butylphenyl)-4-[(1-methyl-2-oxo-3-pyridyl)amino]phthalazin-1-one]	109
COC(=O)CCn1cccc(Nc2nn(-c3ccc(OC(F)(F)F)cc3)c(=O)c3ccccc23)c1=O [Example 69, methyl 3-[2-oxo-3-[[4-oxo-3-[4-(trifluoromethoxy)phenyl]phthalazin-1-yl]amino]-1-pyridyl]propanoate]	228
O=c1c(Nc2nn(-c3ccc(OC(F)(F)F)cc3)c(=O)c3c2CCC3)cccn1CCNC1COC1 [Example 168, 1-[[1-[2-(Oxetan-3-ylamino)ethyl]-2-oxo-3-pyridyl]amino]-3-[4-(trifluoromethoxy)phenyl]-6,7-dihydro-5H-cyclopenta[d]pyridazin-4-one]	24
Cn1cccc(Nc2nn(-c3ccc(OC(F)(F)F)cc3)c(=O)c3ccccc23)c1=O [Example 1, 4-[(1-methyl-2-oxo-3-pyridyl)amino]-2-[4-(trifluoromethoxy)phenyl]phthalazin-1-one]	22
Cn1cccc(Nc2nn(-c3ccc(C4CC4)cc3)c(=O)c3ccccc23)c1=O [Example 12, 2-(4-cyclopropylphenyl)-4-[(1-methyl-2-oxo-3-pyridyl)amino]phthalazin-1-one]	407
Cn1cccc(Nc2nn(-c3ccc(OC(F)(F)F)cc3)c(=O)c3cc(CN)ccc23)c1=O [Example 143, 7-(Aminomethyl)-4-[(1-methyl-2-oxo-3-pyridyl)amino]-2-[4-(trifluoromethoxy)phenyl]phthalazin-1-one]	271
COc1cccc2c(=O)n(-c3ccc(OC(F)(F)F)cc3)nc(Nc3cccn(C)c3=O)c12 [Example 19, 5-methoxy-4-[(1-methyl-2-oxo-3-pyridyl)amino]-2-[4-(trifluoromethoxy)phenyl]phthalazin-1-one]	59500
CNC(=O)N1CCc2c(c(Nc3cccn(C)c3=O)nn(-c3ccc(OC(F)(F)F)cc3)c2=O)C1 [Example 160, N-Methyl-4-[(1-methyl-2-oxo-3-pyridyl)amino]-1-oxo-2-[4-(trifluoromethoxy)phenyl]-7,8-dihydro-5H-pyrido[3,4-d]pyridazine-6-carboxamide]	86
CC(=O)N1CCc2c(Nc3cncn(C)c3=O)nn(-c3ccc(OC(F)(F)F)cc3)c(=O)c2C1 [Example 150, 6-Acetyl-1-[(1-methyl-6-oxo-pyrimidin-5-yl)amino]-3-[4-(trifluoromethoxy)phenyl]-7,8-dihydro-5H-pyrido[3,4-d]pyridazin-4-one]	104
CC(C)(Cn1cccc(Nc2nn(-c3ccc(OC(F)(F)F)cc3)c(=O)c3ccccc23)c1=O)C(=O)O [Example 111, 2,2-dimethyl-3-[2-oxo-3-[[4-oxo-3-[4-(trifluoromethoxy)phenyl]phthalazin-1-yl]amino]-1-pyridyl]propanoic acid]	1510
CNC(=O)c1cc(Nc2nn(-c3ccc(OC(F)(F)F)cc3)c(=O)c3c2CCCC3)c(=O)n(C)c1 [Example 174, N,1-Dimethyl-6-oxo-5-[[4-oxo-3-[4-(trifluoromethoxy)phenyl]-5,6,7,8-tetrahydrophthalazin-1-yl]amino]pyridine-3-carboxamide]	14600
CC(C)c1cc(Nc2nn(-c3ccc(OC(F)(F)F)cc3)c(=O)c3c2CCC3)c(=O)n(C)c1 [Example 36, 1-[(5-isopropyl-1-methyl-2-oxo-3-pyridyl)amino]-3-[4-(trifluoromethoxy)phenyl]-6,7-dihydro-5H-cyclopenta[d]pyridazin-4-one]	579
Cn1cccc(Nc2nn(-c3ccc(C4(C)COC4)cc3)c(=O)c3ccccc23)c1=O [Example 10, 2-[4-(3-methyloxetan-3-yl)phenyl]-4-[(1-methyl-2-oxo-3-pyridyl)amino]phthalazin-1-one]	259
Cc1cc(Nc2nn(-c3ccc(OC(F)(F)F)cc3)c(=O)c3c2CCC3)c(=O)n(C)c1 [Example 32, 1-[(1,5-dimethyl-2-oxo-3-pyridyl)amino]-3-[4-(trifluoromethoxy)phenyl]-6,7-dihydro-5H-cyclopenta[d]pyridazin-4-one]	12
CN(C)C(=O)C(C)(C)Cn1cccc(Nc2nn(-c3ccc(OC(F)(F)F)cc3)c(=O)c3ccccc23)c1=O [Example 100, N,N,2,2-tetramethyl-3-[2-oxo-3-[[4-oxo-3-[4-(trifluoromethoxy)phenyl]phthalazin-1-yl]amino]-1-pyridyl]propanamide]	36
Cc1cc(Nc2nn(-c3ccc(OC(F)(F)F)cc3)c(=O)c3c2CCC3)c(=O)n(C)n1 [Example 29, 1-[(2,6-dimethyl-3-oxo-pyridazin-4-yl)amino]-3-[4-(trifluoromethoxy)phenyl]-6,7-dihydro-5H-cyclopenta[d]pyridazin-4-one]	22
CN1CCc2c(c(Nc3cccn(C)c3=O)nn(-c3ccc(OC(F)(F)F)cc3)c2=O)C1 [Example 133, 6-Methyl-4-[(1-methyl-2-oxo-3-pyridyl)amino]-2-[4-(trifluoromethoxy)phenyl]-7,8-dihydro-5H-pyrido[3,4-d]pyridazin-1-one]	538
Cn1cc(Cl)cc(Nc2nn(-c3ccc(OC(F)(F)F)cc3)c(=O)c3c2CCC3)c1=O [Example 33, 1-[(5-chloro-1-methyl-2-oxo-3-pyridyl)amino]-3-[4-(trifluoromethoxy)phenyl]-6,7-dihydro-5H-cyclopenta[d]pyridazin-4-one]	6
CN(C)CCNC(=O)Cn1cccc(Nc2nn(-c3ccc(OC(F)(F)F)cc3)c(=O)c3ccccc23)c1=O [Example 93, N-[2-(dimethylamino)ethyl]-2-[2-oxo-3-[[4-oxo-3-[4-(trifluoromethoxy)phenyl]phthalazin-1-yl]amino]-1-pyridyl]acetamide]	166
CN(CCn1cccc(Nc2nn(-c3ccc(OC(F)(F)F)cc3)c(=O)c3ccccc23)c1=O)CC(=O)O [Example 113, 2-[methyl-[2-[2-oxo-3-[[4-oxo-3-[4-(trifluoromethoxy)phenyl]phthalazin-1-yl]amino]-1-pyridyl]ethyl]amino]acetic acid]	161
O=c1c(Nc2nn(-c3ccc(OC(F)(F)F)cc3)c(=O)c3c2CCC3)cccn1CC1CCCN1 (stereo not drawn) [Example 131, 1-[[2-Oxo-1-(pyrrolidin-2-ylmethyl)-3-pyridyl]amino]-3-[4-(trifluoromethoxy)phenyl]-6,7-dihydro-5H-cyclopenta[d]pyridazin-4-one]	30
